Experimental data: US20050282755A1, “Compositions having antimicrobial activity and uses thereof” (priority 2004, published 2005)
≈ marks a conversion by molar mass, not a printed value. Non-standard residues stand in square brackets, D forms with d. Residues, ends and D or L forms follow the SMILES beside them. *: point of attachment. Lauroyl = CCCCCCCCCCCC(=O)*

Legend:
Assay type in all cases: cell-based
[1] = tested on: Staphylococcus aureus ATCC 29213; assay: MIC, NCCLS M7-A6 broth microdilution, cation-adjusted Mueller Hinton broth (Table 9, no superscript); conditions: ATCC 29213
How it was run: (§1)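 CAMHB microdilution; final inoculum 5×10^5–1×10^6 CFU/milliliter from log-phase culture; overnight, 37° C; MIC = lowest peptide conc. without visible growth (turbidity) vs no-peptide control.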

[2] = tested on: Propionibacterium acnes ATCC 6919; assay: MIC, agar dilution method NCCLS M11-A6, Brucella agar, anaerobic (Table 9, superscript c); conditions: ATCC 6919
How it was run: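 Agar dilution per NCCLS M11-A6 on Brucella agar; final inoculum 1.5×10^8 CFU/milliliter applied to plates, incubated 48-96 hours at 37° C. under anaerobic (GasPak) conditions. MIC = lowest peptide concentration with no colony growth.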

[3] = tested on: Escherichia coli ATCC 25922; assay: MIC, NCCLS M7-A6 broth microdilution (Table 9, no superscript); conditions: ATCC 25922
How it was run: as §1

Salmonella dublin (Lane) = assay: as above
How it was run: as §1

[4] = tested on: Pseudomonas aeruginosa ATCC 27853; assay: as above; conditions: ATCC 27853
How it was run: as §1

[5] = tested on: Staphylococcus epidermidis ATCC 12228; assay: as above; conditions: ATCC 12228
How it was run: as §1

[6] = tested on: Candida albicans ATCC 18804; assay: MIC in yeasts, NCCLS M27-A2 broth microdilution, RPMI 1640 (Table 9, letter e); conditions: ATCC 18804
How it was run: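 Broth microdilution per NCCLS M27-A2 in RPMI 1640 with glutamine and phenol red, final inoculum 0.5×10^3–2.5×10^3 CFU/milliliter. Incubated 24 to 48 hours at 37° C; MIC is the lowest peptide concentration with no visible growth.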

| SMILES | MIC S. aureus [1] | MIC P. acnes [2] | MIC E. coli [3] | MIC S. dublin (Salmonella dublin (Lane)) | MIC P. aeruginosa [4] | MIC S. epidermidis [5] | MIC C. albicans [6] |
| --- | --- | --- | --- | --- | --- | --- | --- |
| CCCCCCCCCCCC(=O)N[C@@H](CCCNC(=N)N)C(=O)N[C@@H](CO)C(=O)N[C@@H](CCCNC(=N)N)C(=O)N[C@@H](Cc1c[nH]c2ccccc12)C(=O)N[C@@H](CCCNC(=N)N)C(=O)N[C@@H](CC(=O)O)C(=O)N[C@H](C(=O)N[C@@H](C)C(N)=O)C(C)C [Peptide 102, Lauryl-RSRWRDVA-NH2] (Lauroyl-RSRWRDVA-NH2) | 4 µg/mL (≈ 3.26 µM) | >64c ug/mL | >64 µg/mL | >64 µg/mL | 64 µg/mL (≈ 52.2 µM) | 8 µg/mL (≈ 6.52 µM) | 64e ug/mL |
| CCCCCCCCCCCC(=O)N[C@H](CCCNC(=N)N)C(=O)N[C@H](CO)C(=O)N[C@H](CCCNC(=N)N)C(=O)N[C@H](Cc1c[nH]c2ccccc12)C(=O)N[C@H](CCCNC(=N)N)C(=O)N[C@H](CC(=O)O)C(=O)N[C@@H](C(=O)N[C@H](C)C(=O)N[C@H](CCCNC(=N)N)C(=O)N[C@H](CC(N)=O)C(=O)N[C@H](Cc1ccccc1)C(N)=O)C(C)C [Peptide 116, Lauryl-rsrwrdvarnf-NH2] (Lauroyl-[dR][dS][dR][dW][dR][dD][dV][dA][dR][dN][dF]-NH2) | 8 µg/mL (≈ 4.87 µM) | 8c ug/mL | 8 µg/mL (≈ 4.87 µM) | 8 µg/mL (≈ 4.87 µM) | 8 µg/mL (≈ 4.87 µM) | 4 µg/mL (≈ 2.43 µM) | 32e ug/mL |
| CCCCCCCCCCCC(=O)N[C@H](CCCNC(=N)N)C(=O)N[C@H](CO)C(=O)N[C@H](CCCNC(=N)N)C(=O)N[C@H](Cc1c[nH]c2ccccc12)C(=O)N[C@H](CCCNC(=N)N)C(=O)N[C@H](CC(=O)O)C(=O)N[C@@H](C(N)=O)C(C)C [Peptide 120, Lauryl-rsrwrdv-NH2] (Lauroyl-[dR][dS][dR][dW][dR][dD][dV]-NH2) | 16 µg/mL (≈ 13.8 µM) | 64c ug/mL | >64 µg/mL | >64 µg/mL | 64 µg/mL (≈ 55.4 µM) | 16 µg/mL (≈ 13.8 µM) | 64e ug/mL |
| CCCCCCCCCCCC(=O)N[C@H](CCCNC(=N)N)C(=O)N[C@H](Cc1c[nH]c2ccccc12)C(=O)N[C@H](CCCNC(=N)N)C(=O)N[C@H](CC(=O)O)C(=O)N[C@@H](C(=O)N[C@H](C)C(=O)N[C@H](CCCNC(=N)N)C(N)=O)C(C)C [Peptide 122, Lauryl-rwrdvar-NH2] (Lauroyl-[dR][dW][dR][dD][dV][dA][dR]-NH2) | 8 µg/mL (≈ 7.02 µM) | 32c ug/mL | 64 µg/mL (≈ 56.2 µM) | 32 µg/mL (≈ 28.1 µM) | 16 µg/mL (≈ 14 µM) | 8 µg/mL (≈ 7.02 µM) | 32e ug/mL |
| CCCCCCCCCCCC(=O)N[C@H](CCCNC(=N)N)C(=O)N[C@H](CC(=O)O)C(=O)N[C@@H](C(=O)N[C@H](C)C(=O)N[C@H](CCCNC(=N)N)C(=O)N[C@H](CC(N)=O)C(=O)N[C@H](Cc1ccccc1)C(=O)N[C@H](CCSC)C(=O)N[C@H](CCCNC(=N)N)C(N)=O)C(C)C [Peptide 128, Lauryl-rdvarnfmr-NH2] (Lauroyl-[dR][dD][dV][dA][dR][dN][dF][dM][dR]-NH2) | 16 µg/mL (≈ 11.9 µM) | 16c ug/mL | 32 µg/mL (≈ 23.8 µM) | 32 µg/mL (≈ 23.8 µM) | 32 µg/mL (≈ 23.8 µM) | 8 µg/mL (≈ 5.94 µM) | 32e ug/mL |
| CCCCCCCCCCCC(=O)N[C@H](CCCNC(=N)N)C(=O)N[C@H](Cc1c[nH]c2ccccc12)C(=O)N[C@H](CCCNC(=N)N)C(=O)N[C@H](CC(=O)O)C(=O)N[C@@H](C(=O)N[C@H](C)C(=O)N[C@H](CCCNC(=N)N)C(=O)N[C@H](CC(N)=O)C(=O)N[C@H](Cc1ccccc1)C(=O)N[C@H](CCSC)C(=O)N[C@H](CCCNC(=N)N)C(N)=O)C(C)C [Peptide 130, Lauryl-rwrdvarnfmr-NH2] (Lauroyl-[dR][dW][dR][dD][dV][dA][dR][dN][dF][dM][dR]-NH2) | 4 µg/mL (≈ 2.37 µM) | 8c ug/mL | 8 µg/mL (≈ 4.74 µM) | 16 µg/mL (≈ 9.48 µM) | 8 µg/mL (≈ 4.74 µM) | 2 µg/mL (≈ 1.18 µM) | 16e ug/mL |
| CCCCCCCCCCCC(=O)N[C@H](CCCNC(=N)N)C(=O)N[C@H](CO)C(=O)N[C@H](CCCNC(=N)N)C(=O)N[C@H](CC(C)C)C(=O)N[C@H](CCCNC(=N)N)C(=O)N[C@H](CC(=O)O)C(=O)N[C@H](CC(C)C)C(=O)N[C@H](CC(C)C)C(=O)N[C@H](CCCNC(=N)N)C(=O)N[C@H](CC(N)=O)C(=O)N[C@H](CC(C)C)C(=O)N[C@H](C)C(=O)N[C@H](CCCNC(=N)N)C(N)=O [Peptide 132, Lauryl-rsrlrdllrnlar-NH2] (Lauroyl-[dR][dS][dR][dL][dR][dD][dL][dL][dR][dN][dL][dA][dR]-NH2) | 4 µg/mL (≈ 2.2 µM) | 8c ug/mL | 4 µg/mL (≈ 2.2 µM) | 4 µg/mL (≈ 2.2 µM) | 32 µg/mL (≈ 17.6 µM) | 2 µg/mL (≈ 1.1 µM) | 4e ug/mL |

The next lines start with the values.

| MIC S. aureus [1] | MIC P. acnes [2] | MIC E. coli [3] | MIC S. dublin (Salmonella dublin (Lane)) | MIC P. aeruginosa [4] | MIC S. epidermidis [5] | MIC C. albicans [6] | SMILES |
| --- | --- | --- | --- | --- | --- | --- | --- |
| 4 µg/mL (≈ 3.74 µM) | >64c ug/mL | >64 µg/mL | >64 µg/mL | >64 µg/mL | >64 µg/mL | >64e ug/mL | CCCCCCCCCCCC(=O)N[C@@H](CO)C(=O)N[C@@H](CCCNC(=N)N)C(=O)N[C@@H](Cc1c[nH]c2ccccc12)C(=O)N[C@@H](CCCNC(=N)N)C(=O)N[C@@H](CC(=O)O)C(=O)N[C@H](C(=O)N[C@@H](C)C(N)=O)C(C)C [Peptide 104, Lauryl-SRWRDVA-NH2] (Lauroyl-SRWRDVA-NH2) |
| 8 µg/mL (≈ 5.79 µM) | 16c ug/mL | 64 µg/mL (≈ 46.3 µM) | >64 µg/mL | 32 µg/mL (≈ 23.1 µM) | 8 µg/mL (≈ 5.79 µM) | 32e ug/mL | CCCCCCCCCCCC(=O)N[C@H](CCCNC(=N)N)C(=O)N[C@H](CO)C(=O)N[C@H](CCCNC(=N)N)C(=O)N[C@H](Cc1c[nH]c2ccccc12)C(=O)N[C@H](CCCNC(=N)N)C(=O)N[C@H](CC(=O)O)C(=O)N[C@@H](C(=O)N[C@H](C)C(=O)N[C@H](CCCNC(=N)N)C(N)=O)C(C)C [Peptide 118, Lauryl-rsrwrdvar-NH2] (Lauroyl-[dR][dS][dR][dW][dR][dD][dV][dA][dR]-NH2) |
| 4 µg/mL (≈ 2.25 µM) | 2c ug/mL | 8 µg/mL (≈ 4.51 µM) | 8 µg/mL (≈ 4.51 µM) | 8 µg/mL (≈ 4.51 µM) | 2 µg/mL (≈ 1.13 µM) | 16e ug/mL | CCCCCCCCCCCC(=O)N[C@H](CO)C(=O)N[C@H](CCCNC(=N)N)C(=O)N[C@H](Cc1c[nH]c2ccccc12)C(=O)N[C@H](CCCNC(=N)N)C(=O)N[C@H](CC(=O)O)C(=O)N[C@@H](C(=O)N[C@H](C)C(=O)N[C@H](CCCNC(=N)N)C(=O)N[C@H](CC(N)=O)C(=O)N[C@H](Cc1ccccc1)C(=O)N[C@H](CCSC)C(=O)N[C@H](CCCNC(=N)N)C(N)=O)C(C)C [Peptide 131, Lauryl-srwrdvarnfmr-NH2] (Lauroyl-[dS][dR][dW][dR][dD][dV][dA][dR][dN][dF][dM][dR]-NH2) |
